According to publication PMC9161444, “In-Membrane Nanostructuring of Cationic Amphiphiles Affects Their Antimicrobial Efficacy and Cytotoxicity: A Comparison Study between a De Novo Antimicrobial Lipopeptide and Traditional Biocides” (Langmuir, 2022):
Values after ≈ are worked out from the molar mass of the structure shown. Residues, ends and D or L forms follow the SMILES beside them. No end group written: not given here. *: point of attachment. Myristoyl = CCCCCCCCCCCCCC(=O)*

Columns and labels:
[1] = previous findings by Lu et al.; cited from earlier work
From the text: From the best fitted surface tension parameters (listed in Table S2), the area per molecule (APM) could be calculated from eq 4 for each amphiphile at its respective CAC. […] This is in line with the previous findings by Lu et al., which stated that APMs of C10TAB, C12TAB, C14TAB, C16TAB, and C18TAB adsorbed on the surface of water were 55 ± 3, 50 ± 2, 48 ± 3, 43 ± 3, and 43 ± 3 Å^2, respectively.[29]−[33] Each lipopeptide molecule occupied around 79 ± 10 Å^2 at ...

[2] = test system: C. albicans SC5314 (ATCC MYA-2876); assay type: cell-based, Candida albicans; conditions: SC5314, 48 h
Description: (§1) E. coli (ATCC 25922), S. aureus (ATCC 6538), and C. albicans SC5314 (ATCC MYA-2876) were purchased from the American Type Culture Collection (ATCC). The two bacterial strains, E. coli and S. aureus, were cultured in Mueller Hinton broth at 37 °C; while the yeast strain, C. albicans, was grown in RPMI 1640 medium at 30 °C. The microdilution method was employed to determine MICs of the amphiphiles against the microorganism strains listed above.[21] Solutions of lipopeptides and biocides were half-diluted serially in 96-well plates using PBS buffer containing 137 mM NaCl, 2.7 mM KCl, 8.1 mM Na2HPO4, and 1.9 mM KH2PO4 for E. coli and S. aureus and using RPMI 1640 for C. albicans. Overnight incubations of the strains, in each respective growth medium, were then inoculated into each well, giving final concentrations of 10^6 CFU/mL for E. coli and S. aureus and 10^5 CFU/mL for C. albicans. Culture media without microorganisms and amphiphiles were employed as positive controls, while fresh microorganism cultures without amphiphiles were used as negative controls. Each plate has both positive controls and negative controls. The plates were then incubated at an appropriate temperature (stated above) for 24 h for the bacterial strains and 48 h for the yeast strain. MICs of each sample were first determined by eye. A more quantitative analysis was carried out by measuring optical densities at 600 nm (OD600) of each well using a Sunrise absorbance microplate reader (Tecan Group Ltd.). Inhibitory ratios (IRs) of each sample at a given concentration against a specific strain, denoted as IRi, were calculated by IRi = (OD600,negative control – OD600,i)/(OD600,negative control – OD600,positive control) × 100%. All experiments were repeated at least three times with each group containing three replicates. To better analyze concentration–IR relationships, sigmoidal function fittings were employed to generate the best fitted dose response curve for each situation.

[3] = test system: Human dermal fibroblasts cells (adult, HDFa cells); assay type: cell-based; conditions: 24 h
Description: (§2) Human dermal fibroblasts cells (adult, HDFa cells) and NIH 3T3 fibroblasts cells (3T3 cells, ATCC-1658) were cultured at 37 °C in Dulbecco’s modified Eagle medium (ATCC30-2002, added with 10% heat-inactivated fetal bovine serum) with a continuous supply of CO2 at a 5% level. MTT assays were carried out to examine in vitro cytotoxicity of the amphiphiles.[22] Cells were first inoculated in flat-bottom 96-well plates, rendering 8 × 10^3 cells in 100 μL of medium for each well, and were incubated for 24 h. The cells were mixed with 100 μL of a solution of an amphiphile with 2 times the selected concentrations. Cells were then exposed to the solutions of each amphiphile for 24 h, after which 10 μL of 5 mg/mL MTT solution was added into each well, and the reaction was allowed for 2 h. 200 μL of dimethyl sulfoxide was then added to each well to dissolve the transformed MTT formazan. Light absorbance of the samples was measured using a Thermo Scientific Varioskan LUX at 570 nm. Cell samples 100% viable and 100% dead were employed as the positive control and negative control, respectively. Dose response curves were obtained by applying sigmoidal function fittings to obtain 50% effective concentrations (EC50).

[4] = test system: NIH 3T3 fibroblasts cells (3T3 cells, ATCC-1658); assay type: cell-based; conditions: 24 h
Description: as §2

[5] = test system: hRBCs; assay type: cell-based, human
Description: hRBCs were purchased from Rockland Immunochemical Inc. Hemolytic assays were performed in 96-well plates in an environment of PBS, as previously described.[13],[23] Amphiphiles were half diluted serially at first, resulting in 100 μL of solution in each well, and mixed subsequently with 100 μL of 4% hRBC suspension. Wells filled by PBS mixed with hRBC were employed as positive controls, while hRBCs with added 0.1% Triton X-100 were negative controls. After incubating at 37 °C for 1 h, the plates were centrifuged at 1000 times gravity for 5 min. The supernatants in each well, which contained the released hemoglobin, were transferred to another plate, and their optical density at 450 nm (OD450) was measured using an absorbance microplate reader. The percentage of hemolysis H for each sample at a certain concentration c was obtained by Hc = (OD450,c – OD450,positive control)/(OD450,negative control – OD450,positive control) × 100%. Figures for percentage leakage against concentration for each sample were plotted to determine the approximate range of 50% hemolysis, and the relevant concentration was the half maximal effective concentration (EC50) of the sample. Each experiment was repeated at least three times with each containing three replicates. The dose–response curves were again obtained by applying sigmoidal functional fits to obtain the EC50 values.

[6] = test system: E. coli (ATCC 25922); assay type: cell-based, Escherichia coli; conditions: ATCC 25922, 24 h
Description: as §1

[7] = test system: S. aureus (ATCC 6538); assay type: cell-based, Staphylococcus aureus; conditions: ATCC 6538, 24 h
Description: as §1

[8] = Analytical RP-HPLC retention time as measure of hydrophobicity; assay type: physicochemical; conditions: gradient of eluents
Description: Lipopeptide C14KKGGII was synthesized in the form of acyl chain hydrogenated h-C14KKGGII and acyl chain deuterated d-C14KKGGII. The lipopeptide samples were prepared using a Liberty Blue automated microwave peptide synthesizer, where the standard Fmoc solid-phase strategy was followed. Dimethylformamide (DMF) was used as the solvent during the whole process. Rink-amide resin was employed as a loading anchor to synthesize C-terminal amidated lipopeptides and was swelled for 5 min in DMF before synthesis. After the removal of Fmoc groups on resins, amino acids (Fmoc-Gly-OH, Fmoc-Ile-OH, and Fmoc-Lys-OH in this study) were coupled to the solid phase in succession from the C-terminal to the N-terminal, assisted by the addition of ethyl 2-cyano-2-(hydroxyimino)acetate (OXYMA) and N,N′-diisopropylcarbodiimide (DIC) at 90 °C for 4 min. Fmoc protecting groups on amino acids were removed before further linking using 20% piperidine in DMF. Hydrogenated or deuterated myristic acid was added onto the chain in the last step using the same method. A cleavage mixture of trifluoroacetic acid (TFA), water, and tri-isopropylsilane (TIS) (94/4/2, v/v/v) was employed for the reaction with lipopeptide-loaded resins for 3 h at ambient temperature, removing the side chain protecting groups on the amino acids and releasing lipopeptides from the resin beads. […]

Compound: CCCCCCCCCC[N+](C)(C)C.[Br-] [C10TAB]
- APM adsorbed on the surface of water [1]: 55 ± 3 Å^2

Compound: CCCCCCCCCCCCCC(=O)N[C@@H](CCCCN)C(=O)N[C@@H](CCCCN)C(=O)NCC(=O)NCC(=O)N[C@H](C(=O)N[C@H](C(N)=O)[C@@H](C)CC)[C@@H](C)CC [C14KKGGII, CH3(CH2)12CO-Lys-Lys-Gly-Gly-Ile-Ile-NH2] (Myristoyl-KKGGII-NH2)
- MIC, C. albicans [2]: 12 ± 2 µM (≈ 9.89 µg/mL)
- EC50 [3]: 110 ± 30 µM
- EC50 [4]: 66 ± 6 µM
- concentration at which hemolysis starts [5]: 16 µM
- EC50 ([5]; 1 h): 180 ± 30 µM
- MIC, E. coli [6]: 16 ± 6 µM (≈ 13.2 µg/mL)
- MIC, S. aureus [7]: 9 ± 3 µM (≈ 7.42 µg/mL)

Compound: CCCCCCCCCCCCCCCC[N+](C)(C)C.[Br-] [C16TAB]
- APM adsorbed on the surface of water [1]: 43 ± 3 Å^2

Compound: CCCCCCCCCCCCCCCCCC[N+](C)(C)C.[Br-] [C18TAB]
- APM adsorbed on the surface of water [1]: 43 ± 3 Å^2

Compound: CD3(CD2)12CO-KKGGII-NH2 [dC14KKGGII, acyl chain deuterated C14KKGGII]
- RP-HPLC retention time (comparison of hydrophobicity) [8]: 25.6 min

Compound: KKGGII-NH2 [KKGGII, KKGGII-NH2]
- RP-HPLC retention time (comparison of hydrophobicity) [8]: 15.4 min
